Test results from PubChem BioAssay (NCI).
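Compound exposure: 48 hours, 5 concentrations, 96-well plates. The concentration for 50% growth inhibition is given as GI50. TGI: total growth inhibition.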

Tests used:
Experiment in all cases: NCI-60 cell line screen, 48 h
[1] = tested on: NCI-H522 lung
[2] = tested on: CCRF-CEM leukemia
[3] = tested on: HT29 colon
[4] = tested on: HCC-2998 colon
[5] = tested on: UACC-257 melanoma
[6] = tested on: BT-549 breast
[7] = tested on: NCI-H460 lung
[8] = tested on: SK-MEL-5 melanoma
[9] = tested on: HS 578T breast
[10] = tested on: MDA-MB-435
[11] = tested on: SK-MEL-2 melanoma
[12] = tested on: SNB-75 CNS
[13] = tested on: CAKI-1 renal
[14] = tested on: UACC-62 melanoma
[15] = tested on: OVCAR-3 ovarian
[16] = tested on: SF-295 CNS
[17] = tested on: RPMI-8226 leukemia
[18] = tested on: SK-OV-3 ovarian
[19] = tested on: MDA-MB-231 breast
[20] = tested on: K-562 leukemia
[21] = tested on: KM12 colon
[22] = tested on: SN12C renal
[23] = tested on: U251 CNS
[24] = tested on: NCI-H226 lung
[25] = tested on: SF-268 CNS
[26] = tested on: 786-0 renal
[27] = tested on: TK-10 renal
[28] = tested on: M14 melanoma
[29] = tested on: HL-60(TB) leukemia
[30] = tested on: SF-539 CNS
[31] = tested on: HCT-15 colon
[32] = tested on: T-47D breast
[33] = tested on: HOP-62 NSCLC
[34] = tested on: OVCAR-8 ovarian
[35] = tested on: SNB-19 CNS
[36] = tested on: COLO 205 colon
[37] = tested on: OVCAR-4 ovarian
[38] = tested on: MOLT-4 leukemia
[39] = tested on: HCT-116 colon
[40] = tested on: MALME-3M melanoma
[41] = tested on: A498 renal
[42] = tested on: RXF 393 renal
[43] = tested on: SK-MEL-28 melanoma
[44] = tested on: SW-620 colon
[45] = tested on: DU-145 prostate
[46] = tested on: ACHN renal
[47] = tested on: MCF7 breast
[48] = tested on: OVCAR-5 ovarian
[49] = tested on: EKVX NSCLC
[50] = tested on: PC-3 prostate
[51] = tested on: NCI/ADR-RES ovarian
[52] = tested on: IGROV1 ovarian
[53] = tested on: UO-31 renal
[54] = tested on: HOP-92 NSCLC
[55] = tested on: A549 NSCLC
[56] = tested on: SR leukemia
[57] = tested on: LOX IMVI melanoma
[58] = tested on: NCI-H23 lung

## NC(=O)c1cccc(-n2ccc3cc(NC(=O)Nc4ccc(N5CCOCC5)c(C(F)(F)F)c4)ccc32)n1
[1]
  GI50: 2.07 µM
  TGI: 7.82 µM
[2]
  GI50: 0.741 µM
  TGI: 4.74 µM
[3]
  GI50: 2.34 µM
  TGI: > 100 µM
[4]
  GI50: 3.15 µM
[5]
  GI50: 2.9 µM
  TGI: 9.04 µM
[6]
  GI50: 1.79 µM
  TGI: 5.04 µM
[7]
  GI50: 2.22 µM
  TGI: 6.51 µM
[8]
  GI50: 1.51 µM
  TGI: 3.47 µM
[9]
  GI50: 0.835 µM
  TGI: 4.83 µM
[10]
  GI50: 2.03 µM
  TGI: 7.19 µM
[11]
  GI50: 2.11 µM
  TGI: 5.09 µM
[12]
  GI50: 0.69 µM
  TGI: 4.01 µM
[13]
  GI50: 1.9 µM
  TGI: 9.41 µM
[14]
  GI50: 1.65 µM
  TGI: 4.14 µM
[15]
  GI50: 1.99 µM
  TGI: 5.37 µM
[16]
  GI50: 0.419 µM
  TGI: 2.31 µM
[17]
  GI50: 0.505 µM
  TGI: 2.29 µM
[18]
  GI50: 2.73 µM
  TGI: 8.95 µM
[19]
  GI50: 2.56 µM
  TGI: 7.96 µM
[20]
  GI50: 0.946 µM
  TGI: > 100 µM
[21]
  GI50: 0.397 µM
  TGI: 4.41 µM
[22]
  GI50: 2.19 µM
  TGI: 7.36 µM
[23]
  GI50: 1.25 µM
  TGI: 12.1 µM
[24]
  GI50: 1.74 µM
  TGI: 6.6 µM
[25]
  GI50: 2.67 µM
  TGI: 8.94 µM
[26]
  GI50: 0.67 µM
  TGI: 40.6 µM
[27]
  GI50: 2.75 µM
  TGI: 8.29 µM
[28]
  GI50: 2.25 µM
  TGI: 6.91 µM
[29]
  GI50: 2.05 µM
  TGI: 7.5 µM
[30]
  GI50: 0.616 µM
  TGI: 2.79 µM
[31]
  GI50: 1.59 µM
  TGI: 6.61 µM
[32]
  GI50: 0.463 µM
  TGI: 3.02 µM
[33]
  GI50: 1.5 µM
  TGI: 4.1 µM
[34]
  GI50: 1.48 µM
  TGI: 8.38 µM
[35]
  GI50: 1.86 µM
  TGI: 6.55 µM
[36]
  GI50: 2.06 µM
  TGI: 5.51 µM
[37]
  GI50: 2.25 µM
  TGI: 7.09 µM
[38]
  GI50: 1.65 µM
  TGI: 9.01 µM
[39]
  GI50: 1.91 µM
  TGI: 8.57 µM
[40]
  GI50: 1.59 µM
  TGI: 4.34 µM
[41]
  GI50: 2.01 µM
  TGI: 7.32 µM
[42]
  GI50: 0.245 µM
  TGI: 0.743 µM
[43]
  GI50: 2.04 µM
  TGI: 8.83 µM
[44]
  GI50: 2.87 µM
  TGI: > 100 µM
[45]
  GI50: 3.01 µM
  TGI: > 100 µM
[46]
  GI50: 2.7 µM
  TGI: 8.59 µM
[47]
  GI50: 0.124 µM
  TGI: 3.16 µM
[48]
  GI50: 2.95 µM
  TGI: > 100 µM
[49]
  GI50: 2.9 µM
  TGI: > 100 µM
[50]
  GI50: 1.67 µM
  TGI: 6.2 µM
[51]
  GI50: 2.65 µM
  TGI: 35.4 µM
[52]
  GI50: 2.25 µM
  TGI: 6.94 µM
[53]
  GI50: 1.84 µM
  TGI: 5.21 µM
[54]
  GI50: 2.1 µM
  TGI: 4.82 µM
[55]
  GI50: 2.64 µM
  TGI: > 100 µM

## COc1cc2c3c(n(CCCN4CCCCC4)c(=O)c2cc1OC)-c1cc2c(cc1C3=O)OCO2
[1]
  GI50: 0.932 µM
  TGI: 2.46 µM
[2]
  GI50: 0.13 µM
  TGI: 0.988 µM
[3]
  GI50: 1.28 µM
  TGI: 2.67 µM
[4]
  GI50: 1.22 µM
  TGI: 2.47 µM
[5]
  GI50: 1.76 µM
  TGI: 3.96 µM
[8]
  GI50: 1.6 µM
  TGI: 3.01 µM
[56]
  GI50: 0.143 µM
  TGI: 0.893 µM
[57]
  GI50: 0.716 µM
  TGI: 2.15 µM
[9]
  GI50: 2.07 µM
  TGI: 4.77 µM
[10]
  GI50: 1.66 µM
  TGI: 3.22 µM
[11]
  GI50: 12.4 µM
  TGI: 28.3 µM
[14]
  GI50: 1.38 µM
  TGI: 2.83 µM
[15]
  GI50: 1.63 µM
  TGI: 3.02 µM
[17]
  GI50: 0.333 µM
  TGI: 1.47 µM
[19]
  GI50: 1.21 µM
  TGI: 2.59 µM
[20]
  GI50: 0.179 µM
  TGI: 0.499 µM
[21]
  GI50: 1.51 µM
  TGI: 2.85 µM
[22]
  GI50: 1.59 µM
  TGI: 3.05 µM
[24]
  GI50: 1.54 µM
  TGI: 3.69 µM
[28]
  GI50: 1.59 µM
  TGI: 3.05 µM
[29]
  GI50: 0.341 µM
  TGI: 0.965 µM
[30]
  GI50: 1.46 µM
  TGI: 2.83 µM
[31]
  GI50: 1.26 µM
  TGI: 2.6 µM
[32]
  GI50: 1.58 µM
  TGI: 3.56 µM
[58]
  GI50: 1.53 µM
  TGI: 3.01 µM
[34]
  GI50: 1.68 µM
  TGI: 4.17 µM
[36]
  GI50: 1.11 µM
  TGI: 2.43 µM
[38]
  GI50: 0.0423 µM
  TGI: 2.02 µM
[39]
  GI50: 0.15 µM
  TGI: 0.309 µM
[40]
  GI50: 1.65 µM
  TGI: 3.45 µM
[44]
  GI50: 0.193 µM
  TGI: 1.35 µM
[45]
  GI50: 1.37 µM
  TGI: 2.68 µM
[47]
  GI50: 0.145 µM
  TGI: 2.05 µM
[48]
  GI50: 1.84 µM
  TGI: 3.29 µM
[50]
  GI50: 1.26 µM
  TGI: 2.69 µM
